Earlier results, collected in US20110229584A1, “Compound for the control of herpes simplex virus using glycyrrhizic acid, lipoic acid, allantoin, and slippery elm” (priority 2010, published 2011).

What was measured:
[1] = test system: severe acute respiratory syndrome (SARS)
Epstein-Barr = details: incubated with the viruses for more than 30 minutes
HSV-1 [2] = test system: HSV-1
HSV-2 = details: incubated with the viruses for more than 30 minutes
zoster = details: incubated with the viruses for more than 30 minutes
[3] = test system: human aortic endothelial cells
HSV-1 [4] = details: applied topically to infected epidermal areas
HSV-1 [5] = test system: HSV-1; remark: listed apart in the source

## CCCCCCCCCCCCCCCCCCCCCCO [Docosanol, docosanol]
HSV; both treatment phases, applied early in the stages of infection
  decrease of mean time of healing: more than 50%
HSV; first episodes
  healing time of first episodes with treatment (average): 5.4 days
HSV; first episodes, from 7.3 days
  reduction of healing times of first episodes (average): 1.9 days

## CC1(C)[C@@H](O[C@H]2O[C@H](C(=O)O)[C@@H](O)[C@H](O)[C@H]2O[C@@H]2O[C@H](C(=O)O)[C@@H](O)[C@H](O)[C@H]2O)CC[C@]2(C)[C@H]3C(=O)C=C4[C@@H]5C[C@@](C)(C(=O)O)CC[C@]5(C)CC[C@@]4(C)[C@]3(C)CC[C@@H]12 [Glycyrrhizic acid]
[1]
  inhibition of severe acute respiratory syndrome (SARS): inhibit
Herpes simplex (HSV)
  deactivation of HSV: irreversibly deactiveate
  growth and cytopathic effect of Herpes simplex (HSV): inhibit
Newcastle's Disease
  growth and cytopathic effect of Newcastle's Disease: inhibit
Epstein-Barr
  inactivation of Epstein-Barr: more than 90%
HSV-1 [2]; in vivo
  activity against in vivo HSV-1: strong activity
HSV-1 [2]; thermally injured mice
  resistance of thermally injured mice to HSV-1: improve
HSV-2
  inactivation of HSV-2: more than 90%
Vesicular viomantitis
  growth and cytopathic effect of vesicular viomantitis: inhibit
vaccinia
  growth and cytopathic effect of vaccinia: inhibit
zoster
  inactivation of zoster: more than 90%

## O=C(O)CCCCC1CCSS1 (stereo not drawn) [Lipoic acid, alpha-Lipoic acid]
[3]
  LPS-caused expression of cellular adhesion molecules and adherence of monocytes to human aortic endothelial cells: inhibit
  LPS-triggered NF-B DNA binding activities: inhibited

## Cl.NCCCC[C@H](N)C(=O)O [Lysine monohydrochloride, L-Lysine Monohydrochloride]
HSV-1 [4]
  inactivation of HSV-1: not to be able to inactivate

## Nc1nc2c(ncn2CCC(CO)CO)c(=O)[nH]1 [Penciclovir]
HSV-1 [5]; from 4.1 days
  decrease of pain duration: 0.6 days
HSV-1 [5]; treated group
  healing time of the lesions with treatment: 4.8 days
  pain duration with treatment: 3.5 days
HSV-1 [5]; versus placebo
  lesion virus shedding: marginally changed
HSV-1 [5]; versus placebo 5.5 days
  healing of the lesions faster versus placebo: 0.7 days

## CC1(C)[C@@H](O)CC[C@]2(C)[C@H]3C(=O)C=C4[C@@H]5C[C@@](C)(C(=O)O)CC[C@]5(C)CC[C@@]4(C)[C@]3(C)CC[C@@H]12 [glycrrhetic acid]
[1]
  inhibition of severe acute respiratory syndrome (SARS): inhibit
